US11884675B2, “Heterocyclic compounds as triggering receptor expressed on myeloid cells 2 agonists and methods of use” (AMGEN INC., priority 2020, dated 2024)

Molecular target: hTREM2 (Homo sapiens, UniProt Q9NZC2)
Assay: TREM2 activity by cellular Syk phosphorylation (AlphaScreen/AlphaLISA) in TREM2/DAP12-HEK cells, used for Examples 1-305
Format: cell-based
Parameters: expressed in transfected cells
Details: HEK293 Cells
Method in brief: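 Single-cell-cloned HEK293 cells overexpressing TREM2 and DAP12, seeded 20 h, exposed to test articles (1% final DMSO) for 45 min at room temperature. Lysates read for phospho-Syk (Tyr525/526) vs total Syk by AlphaScreen. Signal normalised as percent of control between isotype IgG and 100 nM anti-TREM2 antibody; 4-parameter logistic fit.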

Chain of hTREM2 (Q9NZC2 19-230): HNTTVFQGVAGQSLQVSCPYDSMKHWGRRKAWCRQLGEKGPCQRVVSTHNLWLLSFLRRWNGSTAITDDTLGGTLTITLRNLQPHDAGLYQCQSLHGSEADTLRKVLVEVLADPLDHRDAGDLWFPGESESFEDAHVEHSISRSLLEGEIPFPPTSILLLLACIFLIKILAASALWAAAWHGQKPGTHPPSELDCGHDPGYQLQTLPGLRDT
Chain of hTREM2 (O43914 22-113 partner): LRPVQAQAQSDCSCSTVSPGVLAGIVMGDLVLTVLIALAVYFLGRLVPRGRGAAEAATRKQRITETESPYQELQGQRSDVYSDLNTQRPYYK

Compound | EC50 [nM] | hTREM2 Emax
Cc1cc2c(OCC3CC(F)(F)C3)nc(N3CCO[C@@H](c4cnn(C)c4)C3)nc2nc1C [Example 108, 4-((3,3-difluorocyclobutyl)methoxy)-6,7-dimethyl-2-((2S)-2-(1-methyl-1H-pyrazol-4-yl)-4-morpholinyl)pyrido[2,3-d]pyrimidine] | 50 to 500 | + (Emax>45 and ≤100)
Cc1cc2c(OC[C@H]3CC3(C)C)nc(N3CCO[C@@H](c4cnn(C)c4)C3)nc2nc1C [Example 111, 4-(((1S)-2,2-dimethylcyclopropyl)methoxy)-6,7-dimethyl-2-((2S)-2-(1-methyl-1H-pyrazol-4-yl)-4-morpholinyl)pyrido[2,3-d]pyrimidine] | 500 to 3000 | + (Emax>45 and ≤100)
COC1CN(c2nc(N3CCO[C@@H](c4cnn(C)c4)C3)nc3nc(C)c(C)nc23)C1 [Example 28, 4-(3-methoxy-1-azetidinyl)-6,7-dimethyl-2-((2S)-2-(1-methyl-1H-pyrazol-4-yl)-4-morpholinyl)pteridine] | 500 to 3000 | +++ (Emax>150 and ≤250)
Cc1nc2nc(N3CCO[C@@H](c4cnn(C)c4)C3)nc(-c3ccc(F)cc3F)c2nc1C [Example 31, 4-(2,4-difluorophenyl)-6,7-dimethyl-2-((2S)-2-(1-methyl-1H-pyrazol-4-yl)-4-morpholinyl)pteridine] | ≤ 50 | +++ (Emax>150 and ≤250)
Cc1cnc2nc(N3CCO[C@@H](c4cnn(C)c4)C3)cc(-c3ccc(Cl)cc3F)c2n1 [Example 158, 8-(4-chloro-2-fluorophenyl)-2-methyl-6-((2S)-2-(1-methyl-1H-pyrazol-4-yl)-4-morpholinyl)pyrido [2,3-b]pyrazine] | 50 to 500 | +++ (Emax>150 and ≤250)
Cc1cnc2c(-c3ccc(Cl)cc3F)cc(N3CCO[C@@H](c4cnn(C)c4)C3)nc2n1 [Example 159, 8-(4-chloro-2-fluorophenyl)-3-methyl-6-((2S)-2-(1-methyl-1H-pyrazol-4-yl)-4-morpholinyl)pyrido [2,3-b]pyrazine] | 50 to 500 | +++ (Emax>150 and ≤250)
Cc1ccc(-c2nc(N3CCO[C@@H](c4cnn(C5CC5)c4)C3)nc3nc(C)cnc23)c(F)c1 [Example 9, 2-((2S)-2-(1-cyclopropyl-1H-pyrazol-4-yl)-4-morpholinyl)-4-(2-fluoro-4-methylphenyl)-7-methylpteridine] | ≤ 50 | +++ (Emax>150 and ≤250)
Cc1nc2nc(N3CCO[C@@H](c4cnn(C)c4)C3)nc(C3=CCCC3)c2nc1C [Example 128, 4-(1-cyclopenten-1-yl)-6,7-dimethyl-2-((2S)-2-(1-methyl-1H-pyrazol-4-yl)-4-morpholinyl)pteridine] | 500 to 3000 | + (Emax>45 and ≤100)
Cc1nc2nc(N3CCO[C@@H](c4cnn(C5CC5)c4)C3)nc([C@H]3C[C@@H](C(F)F)C3)c2nc1C [Example 47, 2-((2S)-2-(1-cyclopropyl-1H-pyrazol-4-yl)-4-morpholinyl)-4-(cis-3-(difluoromethyl)cyclobutyl)-6,7-dimethylpteridine] | ≤ 50 | + (Emax>45 and ≤100)
Cc1cnc2c(-c3ccc(F)cc3F)nc(N3CCO[C@@H](c4cnn(C5CC5)c4)C3)nc2n1 [Example 7, 2-((2S)-2-(1-cyclopropyl-1H-pyrazol-4-yl)-4-morpholinyl)-4-(2,4-difluorophenyl)-7-methylpteridine] | ≤ 50 | +++ (Emax>150 and ≤250)
Cc1cnc2c(n1)nc(N1CCO[C@@H](c3cnn(C4CC4)c3)C1)nc2[C@H]1C[C@H](C(F)(F)F)C1 [Example 13, 2-((2S)-2-(1-cyclopropyl-1H-pyrazol-4-yl)-4-morpholinyl)-7-methyl-4-(trans-3-(trifluoromethyl)cyclobutyl)pteridine] | ≤ 50 | + (Emax>45 and ≤100)
Cc1nc2nc(N3CCO[C@@H](c4cnn(C)c4)C3)nc(-c3ccc(F)c(F)c3F)c2nc1C [Example 61, 6,7-dimethyl-2-((2S)-2-(1-methyl-1H-pyrazol-4-yl)-4-morpholinyl)-4-(2,3,4-trifluorophenyl)pteridine] | ≤ 50 | +++ (Emax>150 and ≤250)
Cc1cc([C@@H]2CN(c3nc(-c4ccc(Cl)cc4F)c4cc(C)c(C)nc4n3)CCO2)cnn1 (single isomer, unassigned) [Example 105] | ≤ 50 | ++++ (Emax>250)
Cc1cc2c(-c3ccc(Cl)cc3F)nc(N3CCO[C@@H](c4cnn(C)c4)C3)nc2nc1C [Example 103, 4-(4-chloro-2-fluorophenyl)-6,7-dimethyl-2-((2S)-2-(1-methyl-1H-pyrazol-4-yl)-4-morpholinyl)pyrido[2,3-d]pyrimidine] | ≤ 50 | ++++ (Emax>250)
Cc1ccc(-c2nc(N3CCO[C@@H](c4ccnc(C)c4)C3)nc3nc(C)cnc23)c(F)c1 [Example 10, 4-(2-fluoro-4-methylphenyl)-7-methyl-2-((2S)-2-(2-methyl-4-pyridinyl)-4-morpholinyl)pteridine] | ≤ 50 | +++ (Emax>150 and ≤250)
Cc1cc([C@H]2CN(c3nc(-c4ccc(F)cc4F)c4nc(C)c(C)nc4n3)CCO2)ccn1 [Example 33, 4-(2,4-difluorophenyl)-6,7-dimethyl-2-((2S)-2-(2-methyl-4-pyridinyl)-4-morpholinyl)pteridine] | ≤ 50 | ++++ (Emax>250)
Cc1nc2cc(N3CCO[C@@H](c4cnn(C)c4)C3)cc(-c3ccc(Cl)cc3F)c2nc1C [Example 162, 5-(4-chloro-2-fluorophenyl)-2,3-dimethyl-7-((2S)-2-(1-methyl-1H-pyrazol-4-yl)-4-morpholinyl) quinoxaline] | ≤ 50 | ++++ (Emax>250)

Next, values leading:

EC50 [nM] | hTREM2 Emax | Compound
50 to 500 | +++ (Emax>150 and ≤250) | Cc1cc2c(-c3ccc(Cl)cc3F)nc(C3CCO[C@H](c4cnn(C)c4)C3)nc2nc1C (stereo in doubt) [Example 277, 4-(4-chloro-2-fluorophenyl)-6,7-dimethyl-2-((2S,4R)-2-(1-methyl-1H-pyrazol-4-yl)tetrahydro-2H-pyran-4-yl)pyrido[2,3-d]pyrimidine]
≤ 50 | +++ (Emax>150 and ≤250) | Cc1cc([C@H]2C[C@@H](c3cc4nc(C)c(C)nc4c(-c4ccc(Cl)cc4F)n3)CCO2)ccn1 (single isomer, unassigned) [Example 218]
3000 to 100000 |  | Cc1nc2cc([C@@H]3CCO[C@H](c4cnn(C5CC5)c4)C3)nc(-c3ccc(Cl)cc3F)c2nc1C [Example 297, 5-(4-chloro-2-fluorophenyl)-7-((2S,4R)-2-(1-cyclopropyl-1H-pyrazol-4-yl)tetrahydro-2H-pyran-4-yl)-2,3-dimethylpyrido[3,4-b]pyrazine]
 | +++ (Emax>150 and ≤250) | Cc1nc2nc([C@H]3CCO[C@@H](c4cnn(C5CC5)c4)C3)nc(-c3ccc(Cl)cc3F)c2nc1C (single isomer, unassigned) [Example 181]
500 to 3000 | +++ (Emax>150 and ≤250) | Cc1ccc2c(-c3ccc(Cl)cc3F)nc([C@H]3CCO[C@@H](c4cnn(C)c4)C3)nc2n1 [Example 287, 4-(4-chloro-2-fluorophenyl)-7-methyl-2-((2R,4S)-2-(1-methyl-1H-pyrazol-4-yl)tetrahydro-2H-pyran-4-yl)pyrido[2,3-d] pyrimidine]
≤ 50 | +++ (Emax>150 and ≤250) | Cc1cc([C@H]2C[C@H](c3nc(-c4ccc(F)cc4F)c4cc(C)c(C)nc4n3)CCO2)ccn1 (single isomer, unassigned) [Example 228]
500 to 3000 | +++ (Emax>150 and ≤250) | Cc1cc([C@H]2CN(c3nc4nc(C)cnc4c([C@H]4C[C@@H](C(F)(F)F)C4)n3)CCO2)cnn1 [Example 280, (S)-4-(7-methyl-4-((1s,3R)-3-(trifluoromethyl)cyclobutyl)pteridin-2-yl)-2-(6-methylpyridazin-4-yl)morpholine]
≤ 50 | +++ (Emax>150 and ≤250) | Cc1nc2nc([C@H]3CCO[C@@H](c4cnn(C)c4)C3)cc(-c3ccc(F)cc3F)c2nc1C (single isomer, unassigned) [Example 188]
≤ 50 | +++ (Emax>150 and ≤250) | Cc1cc2c(-c3ccc(Cl)cc3F)nc([C@H]3C[C@@H](C)O[C@@H](c4cnn(C)c4)C3)nc2nc1C (single isomer, unassigned) [Example 229]
500 to 3000 | +++ (Emax>150 and ≤250) | Cc1nc2nc(N3CCO[C@@H]([C@H]4CCOC4)C3)nc(-c3ccc(F)cc3F)c2nc1C [Example 251, (S)-4-(4-(2,4-difluorophenyl)-6,7-dimethylpteridin-2-yl)-2-((S)-tetrahydrofuran-3-yl)morpholine]
50 to 500 | +++ (Emax>150 and ≤250) | Cc1cc([C@H]2C[C@H](c3nc(-c4ccc(F)cc4F)c4nc(C)c(C)nc4n3)CCO2)ccn1 (single isomer, unassigned) [Example 213]
 | +++ (Emax>150 and ≤250) | Cc1cc([C@H]2CN(c3nc(-c4ccc(C(F)(F)F)nc4)c4nc(C)c(C)nc4n3)CCO2)ccn1 [Example 293, (S)-4-(6,7-dimethyl-4-(6-(trifluoromethyl)pyridin-3-yl)pteridin-2-yl)-2-(2-methylpyridin-4-yl)morpholine]
500 to 3000 | +++ (Emax>150 and ≤250) | Cc1ccc2c(-c3ccc(Cl)cc3F)nc([C@@H]3CCO[C@H](c4cnn(C5CC5)c4)C3)nc2n1 [Example 260, 4-(4-chloro-2-fluorophenyl)-2-((2S,4R)-2-(1-cyclopropyl-1H-pyrazol-4-yl)tetrahydro-2H-pyran-4-yl)-7-methylpyrido [2,3-d]pyrimidine]
≤ 50 | ++++ (Emax>250) | Cc1cc2c(-c3ccc(Cl)cc3F)nc([C@H]3CCO[C@@H](c4cnn(C5CC5)c4)C3)nc2nc1C (single isomer, unassigned) [Example 199]
